The values below come from US10111902B2, “Polymers for reversing heparin-based anticoagulation” (University of British Columbia, priority 2011, dated 2018).

One series concerns blood. Kind of series: Blood compatibility at 1 mg/ml. To be noted: footnote [3] to protamine: showed complement activation, platelet activation, behaved like an anticoagulant, massive hemolysis.
The test system of a further series is ctDNA. Kind of series: Binding affinity of polymers for ctDNA. Particulars: buffered water (pH 7.2), 50 mM NaCl, 25° C.

Regarding `NCCCNCCCCNCCCN` [Tetramine (spermine), spermine], the “Blood compatibility at 1 mg/ml” value in the series with blood is on record as “poor”. Besides, the “C50 (nM) [1]” value with ctDNA amounted to 2788 nM.
